Reference: US9346809B2 (LEO PHARMA A/S, priority 2009, dated 2016)
pEC50: −log10 of the molar value. Like-named read-outs stand apart in the source and are kept apart here.

Tests used:
Type in all cases: biochemical
[1] = biological target: T1, TYK2 (aa 871-1187, catalytic domain, GST-tag) (Homo sapiens, UniProt P29597); test: JAK kinase assay (HTRF, phosphorylation of TK substrate-biotin), TYK2; conditions: ATP at Km (13 μM)
T1 construct: JAK1 (aa 850-1154) and TYK2 (aa 871-1187) are expressed with an N-terminally fused GST-tag; GST (N); purchased Carna Biosciences, Inc; host or cells: baculovirus expression system
T1 sequence (P29597 871-1187): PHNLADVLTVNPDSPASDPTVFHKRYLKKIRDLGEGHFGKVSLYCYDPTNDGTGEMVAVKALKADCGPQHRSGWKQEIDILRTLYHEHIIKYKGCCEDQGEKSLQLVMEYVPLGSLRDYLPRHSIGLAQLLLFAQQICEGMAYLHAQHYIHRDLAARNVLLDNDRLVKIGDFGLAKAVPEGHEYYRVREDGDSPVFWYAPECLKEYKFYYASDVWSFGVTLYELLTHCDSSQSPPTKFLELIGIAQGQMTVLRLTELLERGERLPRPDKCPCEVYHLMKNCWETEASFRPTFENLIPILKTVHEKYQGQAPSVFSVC
In short: (§1)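 Compound was mixed with TK substrate-biotin (1 μM final), then kinase plus ATP at its Km was added and left 20-30 min at room temperature. Detection mix with EDTA, Streptavidin-XL665 and STK Ab Cryptate stopped the reaction; after overnight dark incubation, HTRF was read and EC50 derived.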

[2] = biological target: T2, JAK3 (catalytic domain, His-tag) (Homo sapiens, UniProt P52333); test: JAK kinase assay (HTRF, phosphorylation of TK substrate-biotin), JAK3; conditions: ATP at Km (2 μM)
T2 construct: All four purified enzymes contain only the catalytic domain; His (N); purchased Carna Biosciences, Inc; host or cells: baculovirus expression system
T2 sequence (P52333 822-1111 limits assumed): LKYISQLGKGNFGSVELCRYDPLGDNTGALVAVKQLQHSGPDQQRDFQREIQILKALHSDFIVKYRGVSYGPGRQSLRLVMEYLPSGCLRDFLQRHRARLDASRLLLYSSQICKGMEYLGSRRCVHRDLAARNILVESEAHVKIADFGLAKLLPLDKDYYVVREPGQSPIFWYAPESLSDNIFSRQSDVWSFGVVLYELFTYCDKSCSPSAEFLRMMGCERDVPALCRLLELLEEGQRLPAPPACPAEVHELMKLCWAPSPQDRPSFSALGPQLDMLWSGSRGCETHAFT
In short: as §1

[3] = biological target: T3, JAK2 (catalytic domain, His-tag) (Homo sapiens, UniProt O60674); test: JAK kinase assay (HTRF, phosphorylation of TK substrate-biotin), JAK2; conditions: ATP at Km (4 μM)
T3 construct: All four purified enzymes contain only the catalytic domain; His (N); purchased Carna Biosciences, Inc; host or cells: baculovirus expression system
T3 sequence (O60674 849-1124 limits assumed): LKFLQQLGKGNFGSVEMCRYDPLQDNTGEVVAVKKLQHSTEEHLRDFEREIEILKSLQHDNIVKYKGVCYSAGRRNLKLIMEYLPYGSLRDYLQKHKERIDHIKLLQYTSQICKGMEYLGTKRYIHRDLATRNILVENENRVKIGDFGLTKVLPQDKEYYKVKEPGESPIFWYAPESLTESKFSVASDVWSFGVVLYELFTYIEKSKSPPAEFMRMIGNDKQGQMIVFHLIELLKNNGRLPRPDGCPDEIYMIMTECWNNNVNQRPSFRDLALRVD
In short: as §1

[4] = biological target: T4, JAK1 (aa 850-1154, catalytic domain, GST-tag) (Homo sapiens, UniProt P23458); test: JAK kinase assay (HTRF, phosphorylation of TK substrate-biotin), JAK1; conditions: ATP at Km (7 μM)
T4 construct: JAK1 (aa 850-1154) and TYK2 (aa 871-1187) are expressed with an N-terminally fused GST-tag; GST (N); purchased Carna Biosciences, Inc; host or cells: baculovirus expression system
T4 sequence (P23458 850-1154): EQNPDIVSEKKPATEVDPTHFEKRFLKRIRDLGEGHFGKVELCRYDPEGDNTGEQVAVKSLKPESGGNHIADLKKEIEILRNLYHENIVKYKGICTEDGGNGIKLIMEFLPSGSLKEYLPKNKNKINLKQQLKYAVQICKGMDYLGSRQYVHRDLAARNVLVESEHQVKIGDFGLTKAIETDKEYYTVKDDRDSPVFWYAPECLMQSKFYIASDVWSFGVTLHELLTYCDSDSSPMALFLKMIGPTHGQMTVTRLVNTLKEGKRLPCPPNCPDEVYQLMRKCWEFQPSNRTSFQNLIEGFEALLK
In short: as §1

[5] = read-out: TYK2 kinase inhibitory activity (EC50 indicator)
[6] = read-out: JAK3 kinase inhibitory activity (EC50 indicator)
[7] = read-out: JAK2 kinase inhibitory activity (EC50 indicator)
[8] = read-out: JAK1 kinase inhibitory activity (EC50 indicator)
[9] = HTRF assay, read-out: TYK2 kinase inhibitory activity (EC50 indicator)
[10] = HTRF assay, read-out: JAK3 kinase inhibitory activity (EC50 indicator)
[11] = HTRF assay, read-out: JAK2 kinase inhibitory activity (EC50 indicator)
[12] = HTRF assay, read-out: JAK1 kinase inhibitory activity (EC50 indicator)
[13] = HTRF assay, read-out: TYK2 kinase inhibitory activity (EC50)
[14] = HTRF assay, read-out: JAK3 kinase inhibitory activity (EC50)
[15] = HTRF assay, read-out: JAK2 kinase inhibitory activity (EC50)
[16] = HTRF assay, read-out: JAK1 kinase inhibitory activity (EC50)

Row | Compound | pEC50 [1, 5] | pEC50 [2, 6] | pEC50 [3, 7] | pEC50 [4, 8] | pEC50 [1, 9] | pEC50 [2, 10] | pEC50 [3, 11] | pEC50 [4, 12] | also measured
1 | CC1CN(C(=O)C2(C#N)CC2)C2(CC2)CN1c1ncnc2[nH]ccc12 (stereo not shown) [Example 149, 1-[6-Methyl-7-(7H-pyrrolo[2,3-d]pyrimidin-4-yl)-4,7-diaza-spiro[2.5]octane-4-carbonyl]-cyclopropanecarbonitrile] | 6.30 to 7.00 | 6.30 to 7.00 | > 7.00 | > 7.00 |  |  |  |  | 
2 | O=C(Cc1ccncc1)N1CCN(c2ncnc3[nH]ccc23)CC12CC2 [Example 21, 2-Pyridin-4-yl-1-[7-(7H-pyrrolo[2,3-d]pyrimidin-4-yl)-4,7-diazaspiro[2.5]oct-4-yl]ethanone] | < 6.30 | 6.30 to 7.00 | > 7.00 | > 7.00 |  |  |  |  | 
3 | COC(=O)c1cc2c(N3CCN(C(=O)Cc4cccc(C#N)c4)C4(CC4)C3)ncnc2[nH]1 [Example 123, 4-{4-[2-(3-Cyano-phenyl)-acetyl]-4,7-diaza-spiro[2.5]oct-7-yl}-7H-pyrrolo[2,3-d]pyrimidine-6-carboxylic acid methyl ester] | < 6.30 | < 6.30 | < 6.30 | < 6.30 |  |  |  |  | 
4 | O=C(C1Cc2ccccc21)N1C2CCC1CN(c1ncnc3[nH]ccc13)C2 (stereo not shown) [Example 132, Bicyclo[4.2.0]octa-1(6),2,4-trien-7-yl-[3-(7H-pyrrolo[2,3-d]pyrimidin-4-yl)-3,8-diaza-bicyclo[3.2.1]oct-8-yl]-methanone] | < 6.30 | 6.30 to 7.00 | 6.30 to 7.00 | 6.30 to 7.00 |  |  |  |  | 
5 | O=C(Cc1ccc(C(F)(F)F)cc1)N1CCN(c2ncnc3[nH]cc(Cl)c23)CC12CC2 [Example 321, 1-[7-(5-Chloro-7H-pyrrolo[2,3-d]pyrimidin-4-yl)-4,7-diaza-spiro[2.5]oct-4-yl]-2-(4-trifluoromethyl-phenyl)-ethanone] |  |  |  |  | < 6.30 | > 7.00 | 6.30 to 7.00 | 6.30 to 7.00 | 
6 | N#Cc1ccc(CC(=O)N2CCN(c3ncnc4[nH]cc(Cl)c34)CC23CC3)cc1 [Example 324, 4-{2-[7-(5-Chloro-7H-pyrrolo[2,3-d]pyrimidin-4-yl)-4,7-diaza-spiro[2.5]oct-4-yl]-2-oxo-ethyl}-benzonitrile] |  |  |  |  | < 6.30 | > 7.00 | > 7.00 | > 7.00 | 
7 | CN(CCC#N)C(=O)C1(C(=O)N2CCN(c3ncnc4[nH]ccc34)CC23CC3)CC1 [Example 87, 1-[7-(7H-Pyrrolo[2,3-d]pyrimidin-4-yl)-4,7-diaza-spiro[2.5]octane-4-carbonyl]-cyclopropanecarboxylic acid (2-cyano-ethyl)-methyl-amide] | < 6.30 | < 6.30 | < 6.30 | < 6.30 |  |  |  |  | 
8 | COc1ncccc1C(=O)N1CCN(c2ncnc3[nH]ccc23)CC12CC2 [Example 216, (2-Methoxy-pyridin-3-yl)-[7-(7H-pyrrolo[2,3-d]pyrimidin-4-yl)-4,7-diaza-spiro[2.5]oct-4-yl]-methanone] |  |  |  |  | < 6.30 | < 6.30 | 6.30 to 7.00 | 6.30 to 7.00 | 
9 | S=C(NC1CCCCC1)N1CCN(c2ncnc3[nH]ccc23)CC12CC2 [Example 437, 7-(7H-Pyrrolo[2,3-d]pyrimidin-4-yl)-4,7-diaza-spiro[2.5]octane-4-carbothioic acid cyclohexylamide] |  |  |  |  |  |  |  |  | pEC50 [1, 13]: < 6.30; pEC50 [2, 14]: < 6.30; pEC50 [3, 15]: 6.30 to 7.00; pEC50 [4, 16]: < 6.30
10 | CS(=O)(=O)Nc1ccc(C(=O)N2CCN(c3ncnc4[nH]ccc34)CC23CC3)cc1 [Example 430, N-{4-[7-(7H-Pyrrolo[2,3-d]pyrimidin-4-yl)-4,7-diaza-spiro[2.5]octane-4-carbonyl]-phenyl}-methanesulfonamide] |  |  |  |  | > 7.00 | > 7.00 | > 7.00 | > 7.00 | 
11 | O=C(c1ccccn1)N1CCN(c2ccnc3[nH]ccc23)CC12CC2 [Example 222, Pyridin-2-yl-[7-(1H-pyrrolo[2,3-b]pyridin-4-yl)-4,7-diaza-spiro[2.5]oct-4-yl]-methanone] |  |  |  |  | < 6.30 | < 6.30 | 6.30 to 7.00 | 6.30 to 7.00 | 
12 | CC(C)(C)[S+]([O-])N1CCN(c2ncnc3[nH]ccc23)CC12CC2 (stereo not shown) [Example 449, 4-[4-(2-Methyl-propane-2-sulfinyl)-4,7-diaza-spiro[2.5]oct-7-yl]-7H-pyrrolo[2,3-d]pyrimidine] |  |  |  |  |  |  |  |  | pEC50 [1, 13]: < 6.30; pEC50 [2, 14]: < 6.30; pEC50 [3, 15]: 6.30 to 7.00; pEC50 [4, 16]: < 6.30
13 | N#CCC(=O)N1[C@@H]2CC[C@H]1CN(c1ncnc3[nH]ccc13)C2 [Example 53, 3-Oxo-3-[3-(7H-pyrrolo[2,3-d]pyrimidin-4-yl)-3,8-diazabicyclo[3.2.1]oct-8-yl]propionitrile] | < 6.30 | 6.30 to 7.00 | 6.30 to 7.00 | 6.30 to 7.00 |  |  |  |  | 
14 | N#CC1(C(=O)N2CCN(c3nc(N)nc4[nH]ccc34)CC23CC3)CC1 [Example 308, 1-[7-(2-Amino-7H-pyrrolo[2,3-d]pyrimidin-4-yl)-4,7-diaza-spiro[2.5]octane-4-carbonyl]-cyclopropanecarbonitrile] |  |  |  |  | < 6.30 | 6.30 to 7.00 | > 7.00 | 6.30 to 7.00 | 
15 | Cc1cncc(C(=O)N2CCN(c3ncnc4[nH]ccc34)CC23CC3)n1 [Example 418, (6-Methyl-pyrazin-2-yl)-[7-(7H-pyrrolo[2,3-d]pyrimidin-4-yl)-4,7-diaza-spiro[2.5]oct-4-yl]-methanone] |  |  |  |  | > 7.00 | > 7.00 | > 7.00 | > 7.00 | 
16 | NS(=O)(=O)c1ccc(C(=O)NCC(=O)N2CCN(c3ncnc4[nH]ccc34)CC23CC3)cc1 [Example 410, N-{2-Oxo-2-[7-(7H-pyrrolo[2,3-d]pyrimidin-4-yl)-4,7-diaza-spiro[2.5]oct-4-yl]-ethyl}-4-sulfamoyl-benzamide] |  |  |  |  | > 7.00 | > 7.00 | > 7.00 | > 7.00 | 
17 | CCCNS(=O)(=O)c1ccc(C(=O)N2CCN(c3ncnc4[nH]ccc34)CC23CC3)cc1 [Example 377, N-Propyl-4-[7-(7H-pyrrolo[2,3-d]pyrimidin-4-yl)-4,7-diaza-spiro[2.5]octane-4-carbonyl]-benzenesulfonamide] |  |  |  |  | 6.30 to 7.00 | > 7.00 | > 7.00 | > 7.00 | 
18 | N#Cc1ccc(CS(=O)(=O)N2[C@@H]3CC[C@H]2CN(c2ncnc4[nH]ccc24)C3)cc1 [Example 78, 4-[3-(7H-Pyrrolo[2,3-d]pyrimidin-4-yl)-3,8-diaza-bicyclo[3.2.1]octane-8-sulfonylmethyl]-benzonitrile] | < 6.30 | 6.30 to 7.00 | 6.30 to 7.00 | > 7.00 |  |  |  |  | 
19 | Cc1ccc(CNS(=O)(=O)c2ccc(C(=O)N3CCN(c4ncnc5[nH]ccc45)CC34CC4)cc2)o1 [Example 427, N-(5-Methyl-furan-2-ylmethyl)-4-[7-(7H-pyrrolo[2,3-d]pyrimidin-4-yl)-4,7-diaza-spiro[2.5]octane-4-carbonyl]-benzenesulfonamide] |  |  |  |  | > 7.00 | > 7.00 | > 7.00 | > 7.00 | 
20 | Cc1cc(C(=O)N2CCN(c3ncnc4[nH]ccc34)CC23CC3)ccc1S(C)(=O)=O [Example 403, (4-Methanesulfonyl-3-methyl-phenyl)-[7-(7H-pyrrolo[2,3-d]pyrimidin-4-yl)-4,7-diaza-spiro[2.5]oct-4-yl]-methanone] |  |  |  |  | 6.30 to 7.00 | 6.30 to 7.00 | > 7.00 | > 7.00 | 
21 | COC(=O)c1cc2c(N3CCN(C(=O)Cc4ccc(C#N)cc4)C4(CC4)C3)ncnc2[nH]1 [Example 124, 4-{4-[2-(4-Cyano-phenyl)-acetyl]-4,7-diaza-spiro[2.5]oct-7-yl}-7H-pyrrolo[2,3-d]pyrimidine-6-carboxylic acid methyl ester] | < 6.30 | < 6.30 | < 6.30 | < 6.30 |  |  |  |  | 
22 | CC1CN(C(=O)CCC#N)C2(CC2)CN1c1ncnc2[nH]ccc12 (stereo not shown) [Example 150, 4-[6-Methyl-7-(7H-pyrrolo[2,3-d]pyrimidin-4-yl)-4,7-diaza-spiro[2.5]oct-4-yl]-4-oxo-butyronitrile] | < 6.30 | > 7.00 | > 7.00 | > 7.00 |  |  |  |  | 
